Source: ChEMBL document CHEMBL5500417, “Discovery of Novel 2-Oxoacetamide Derivatives as B3GAT3 Inhibitors for the Treatment of Hepatocellular Carcinoma” (J Med Chem, 2024)

What was measured:
SNU-387 = assay: cells; conditions: Homo sapiens, SNU-387, 72 h
Description: Antitumor activity against human SNU-387 cells assessed as inhibition of cell proliferation measured after 72 hrs by CCK-8 assay

in vivo [1] = conditions: BALB/c, mouse, po, 10 mg/kg
Description: Tmax in BALB/c mouse at 10 mg/kg, po measured upto 24 hrs by LC-MS/MS analysis

K562 = assay: cells; conditions: Homo sapiens, K562, 72 h
Description: Anti-tumor activity against human K562 cells assessed as inhibition of cell growth measured after 72 hrs by CCK-8 assay

THLE-2 = assay: cells; conditions: Homo sapiens, THLE-2, 72 h
Description: Antitumor activity against human THLE-2 cells assessed as inhibition of cell proliferation measured after 72 hrs by CCK-8 assay

AGS = assay: cells; conditions: Homo sapiens, 72 h
Description: Anti-tumor activity against human AGS cells assessed as inhibition of cell growth measured after 72 hrs by CCK-8 assay

[2] = Clearance in BALB/c mouse at 1.2 mg/kg, iv measured upto 24 hrs by LC-MS/MS analysis; conditions: in vivo
NCI-H446 = assay: cells; conditions: Homo sapiens, NCI-H446, 72 h
Description: Anti-tumor activity against human NCI-H446 cells assessed as inhibition of cell growth measured after 72 hrs by CCK-8 assay

in vivo [3] = conditions: BALB/c, mouse, po, 10 mg/kg; remark: listed apart in the source
Description: AUC in BALB/c mouse at 10 mg/kg, po measured upto 24 hrs by LC-MS/MS analysis

HT-29 = assay: cells; conditions: Homo sapiens, HT-29, 72 h
Description: Anti-tumor activity against human HT-29 cells assessed as inhibition of cell growth measured after 72 hrs by CCK-8 assay

[4] = Clearance in BALB/c mouse at 10 mg/kg, po measured upto 24 hrs by LC-MS/MS analysis; conditions: in vivo
MKN-45 = assay: cells; conditions: Homo sapiens, MKN-45, 72 h
Description: Anti-tumor activity against human MKN-45 cells assessed as inhibition of cell growth measured after 72 hrs by CCK-8 assay

[5] = Half life in BALB/c mouse at 1.2 mg/kg, iv measured upto 24 hrs by LC-MS/MS analysis; conditions: in vivo
Hep 3B2 = assay: cells; conditions: Homo sapiens, Hep3B, 72 h
Description: Antitumor activity against human Hep3B cells assessed as inhibition of cell proliferation measured after 72 hrs by CCK-8 assay

in vivo [6] = conditions: BALB/c, mouse, po, 10 mg/kg; remark: listed apart in the source
Description: Cmax in BALB/c mouse at 10 mg/kg, po measured upto 24 hrs by LC-MS/MS analysis

in vitro [7] = conditions: rat, liver microsomes
Description: Metabolic stability in rat liver microsomes assessed as half life at 0.02 uM measured upto 60 mins by LC-MS/MS analysis

MHCC97H [8] = assay: Cytotoxicity against (shRNA)-mediated B3GAT3 KO human MHCC97H cells assessed as cell viability measured after 72 hrs by CCK8 assay
in vivo [9] = conditions: BALB/c, mouse, iv, 1.2 mg/kg
Description: AUC in BALB/c mouse at 1.2 mg/kg, iv measured upto 24 hrs by LC-MS/MS analysis

HCCLM3 [10] = assay: cells; conditions: Homo sapiens, HCCLM3, 72 h
Description: Antitumor activity against human HCCLM3 cells assessed as inhibition of cell growth measured after 72 hrs by CCK-8 assay

NCI-H1650 = assay: cells; conditions: Homo sapiens, NCI-H1650, 72 h
Description: Anti-tumor activity against human NCI-H1650 cells assessed as inhibition of cell growth measured after 72 hrs by CCK-8 assay

H4 = assay: cells; conditions: Homo sapiens, H4, 72 h
Description: Anti-tumor activity against human H4 cells assessed as inhibition of cell growth measured after 72 hrs by CCK-8 assay

THP-1 = assay: cells; conditions: Homo sapiens, THP-1, 72 h
Description: Anti-tumor activity against human THP-1 cells assessed as inhibition of cell growth measured after 72 hrs by CCK-8 assay

MHCC97H [11] = assay: In vivo-antitumor activity against human MHCC97H cells xenografted BALB/c mouse model assessed as tumor growth inhibitor at 5 mg/kg, IG once daily measured after 31 days relative to control; conditions: po, 744 h, read-out: TGI
[12] = target: T1, Galactosylgalactosylxylosylprotein 3-beta-glucuronosyltransferase 3 (Homo sapiens, UniProt O94766); assay: Binding affinity to biotinylated B3GAT3 (unknown origin) assessed as dissociation constant by biolayer interferometry (BLI) analysis
T1 sequence (O94766 whole entry): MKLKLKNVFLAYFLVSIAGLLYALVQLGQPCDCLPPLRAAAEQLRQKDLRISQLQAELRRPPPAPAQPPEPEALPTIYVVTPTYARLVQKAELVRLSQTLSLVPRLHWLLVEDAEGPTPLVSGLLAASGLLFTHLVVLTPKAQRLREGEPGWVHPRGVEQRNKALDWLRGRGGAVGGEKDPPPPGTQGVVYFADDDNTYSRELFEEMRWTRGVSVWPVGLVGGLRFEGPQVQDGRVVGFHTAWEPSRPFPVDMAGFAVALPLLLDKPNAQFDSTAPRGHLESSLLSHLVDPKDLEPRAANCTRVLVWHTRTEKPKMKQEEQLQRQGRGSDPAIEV

HCCLM3 [13] = assay: In vivo-antitumor activity against human HCCLM3 cells xenografted BALB/c mouse model assessed as tumor growth inhibitor at 10 mg/kg, IG once daily measured after 31 days relative to control; conditions: HCCLM3, po, 744 h, read-out: TGI
[14] = Half life in BALB/c mouse at 10 mg/kg, po measured upto 24 hrs by LC-MS/MS analysis; conditions: in vivo
in vivo [15] = conditions: BALB/c, mouse, iv, 1.2 mg/kg; remark: listed apart in the source
Description: Cmax in BALB/c mouse at 1.2 mg/kg, iv measured upto 24 hrs by LC-MS/MS analysis

HCCLM3 [16] = assay: In vivo-antitumor activity against human HCCLM3 cells xenografted BALB/c mouse model assessed as reduction in tumor weight at 5 mg/kg, IG once daily measured after 31 days relative to control; conditions: HCCLM3, po, 744 h, read-out: INH
SK-OV-3 = assay: cells; conditions: Homo sapiens, SK-OV-3, 72 h
Description: Anti-tumor activity against human SK-OV-3 cells assessed as inhibition of cell growth measured after 72 hrs by CCK-8 assay

U-937 = assay: cells; conditions: Homo sapiens, U-937, 72 h
Description: Anti-tumor activity against human U-937 cells assessed as inhibition of cell growth measured after 72 hrs by CCK-8 assay

Hepa 1-6 = assay: cells; conditions: Mus musculus, Hepa1-6, 72 h
Description: Antitumor activity against mouse Hepa1-6 cells assessed as inhibition of cell proliferation measured after 72 hrs by CCK-8 assay

U-251 = assay: cells; conditions: Homo sapiens, U-251, 72 h
Description: Anti-tumor activity against human U-251MG cells assessed as inhibition of cell growth measured after 72 hrs by CCK-8 assay

PLC-PRF-5 = assay: cells; conditions: Homo sapiens, PLC-PRF-5, 72 h
Description: Antitumor activity against human PLC-PRF-5 cells assessed as inhibition of cell proliferation measured after 72 hrs by CCK-8 assay

HCC1937 = assay: cells; conditions: Homo sapiens, HCC1937, 72 h
Description: Anti-tumor activity against human HCC1937 cells assessed as inhibition of cell growth measured after 72 hrs by CCK-8 assay

MEG-01 = assay: cells; conditions: Homo sapiens, MEG-01, 72 h
Description: Anti-tumor activity against human MEG-01 cells assessed as inhibition of cell growth measured after 72 hrs by CCK-8 assay

MDA-MB-231 = assay: cells; conditions: Homo sapiens, MDA-MB-231, 72 h
Description: Anti-tumor activity against human MDA-M8-231 cells assessed as inhibition of cell growth measured after 72 hrs by CCK-8 assay

Jurkat = assay: cells; conditions: Homo sapiens, 72 h
Description: Anti-tumor activity against human Jurkat cells assessed as inhibition of cell growth measured after 72 hrs by CCK-8 assay

HCCLM3 [17] = assay: cells; conditions: Homo sapiens, HCCLM3, 72 h; remark: listed apart in the source
Description: Antitumor activity against human HCCLM3 cells assessed as inhibition of cell proliferation measured after 72 hrs by CCK-8 assay

Huh-7 = assay: cells; conditions: Homo sapiens, Huh-7, 72 h
Description: Antitumor activity against human Huh-7 cells assessed as inhibition of cell proliferation measured after 72 hrs by CCK-8 assay

Calu-3 = assay: cells; conditions: Homo sapiens, Calu-3, 72 h
Description: Anti-tumor activity against human Calu-3 cells assessed as inhibition of cell growth measured after 72 hrs by CCK-8 assay

in vivo [18] = conditions: BALB/c, mouse, po, 10 mg/kg; remark: listed apart in the source
Description: Oral bioavailability in BALB/c mouse at 10 mg/kg measured upto 24 hrs by LC-MS/MS analysis

MHCC97H [19] = assay: cells; conditions: Homo sapiens, 72 h
Description: Antitumor activity against human MHCC97H cells assessed as inhibition of cell proliferation measured after 72 hrs by CCK-8 assay

MHCC97H [20] = assay: In vivo-antitumor activity against human MHCC97H cells xenografted BALB/c mouse model assessed as tumor growth inhibitor at 10 mg/kg, IG once daily measured after 31 days relative to control; conditions: po, 744 h, read-out: TGI
MHCC97H [21] = assay: Cytotoxicity against (shRNA)-Ctrl transfected human MHCC97H cells assessed as cell viability measured after 72 hrs by CCK8 assay
MHCC97H [22] = assay: cells; conditions: Homo sapiens, 72 h; remark: listed apart in the source
Description: Antitumor activity against human MHCC97H cells assessed as inhibition of cell growth measured after 72 hrs by CCK-8 assay

MHCC97H [23] = assay: In vivo-antitumor activity against human MHCC97H cells xenografted BALB/c mouse model assessed as tumor growth inhibitor at 20 mg/kg, IG once daily measured after 31 days relative to control; conditions: po, 744 h, read-out: TGI
PC-3 = assay: cells; conditions: Homo sapiens, PC-3, 72 h
Description: Anti-tumor activity against human PC-3 cells assessed as inhibition of cell growth measured after 72 hrs by CCK-8 assay

SW-620 = assay: cells; conditions: Homo sapiens, SW-620, 72 h
Description: Anti-tumor activity against human SW620 cells assessed as inhibition of cell growth measured after 72 hrs by CCK-8 assay

[24] = target: T1, Galactosylgalactosylxylosylprotein 3-beta-glucuronosyltransferase 3; assay: Binding affinity to CM5 sensor chip immobilized human B3GAT3 assessed as dissociation constant by SPR analysis
in vitro [25] = conditions: mouse, liver microsomes
Description: Metabolic stability in mouse liver microsomes assessed as half life at 0.02 uM measured upto 60 mins by LC-MS/MS analysis

in vivo [26] = conditions: BALB/c, mouse, iv, 1.2 mg/kg; remark: listed apart in the source
Description: Tmax in BALB/c mouse at 1.2 mg/kg, iv measured upto 24 hrs by LC-MS/MS analysis

in vitro [27] = conditions: human, liver microsomes
Description: Metabolic stability in human liver microsomes assessed as half life at 0.02 uM measured upto 60 mins by LC-MS/MS analysis

In the case of `COC(=O)c1ccc2[nH]cc(C(=O)C(=O)NC3CCN(c4ccc(C)cc4Cl)C3=O)c2c1` (stereo unspecified), the IC50 (SNU-387) is reported as 11.7 µM, the Tmax at 24 h (in vivo [1]) is reported as 13.2 min and the IC50 (K562) is reported as 8.25 µM. For the same compound, the IC50 (THLE-2) was > 20 µM, the IC50 (AGS) was 5.33 µM and the clearance at 24 h [2] was 10 mL/min/kg. The IC50 (NCI-H446) was 11.6 µM, the AUC at 24 h (in vivo [3]) was 9520 ng·h/mL and the IC50 (HT-29) was 4.71 µM. It also gave a CL/F at 24 h [4] of 20 mL/min/kg, an IC50 (MKN-45) of 13.9 µM and a half-life at 24 h [5] of 46.2 min. For the same compound, the IC50 (Hep 3B2) was 12.2 µM, the Cmax at 24 h (in vivo [6]) was 9140 ng/mL and the half-life at 1 h, 0.02 µM (in vitro [7]) was 25.9 min. It also gave an IC50 (MHCC97H [8]) of 17 µM, an AUC at 24 h (in vivo [9]) of 1850 ng·h/mL and an IC50 (HCCLM3 [10]) of 6.22 µM. It also gave an IC50 (NCI-H1650) of 21.6 µM, an IC50 (H4) of 6.65 µM and an IC50 (THP-1) of 23.9 µM. The inhibition in vivo at 5 mg/kg (MHCC97H [11]) was 23.4%, the Kd [12] was 6.62 µM and the inhibition in vivo at 10 mg/kg (HCCLM3 [13]) was 59%. The half-life at 24 h [14] was 251 min, the Cmax at 24 h (in vivo [15]) was 3350 ng/mL and the inhibition in vivo at 5 mg/kg (HCCLM3 [16]) was 58.8%. It also gave an IC50 (SK-OV-3) of 98.7 µM, an IC50 (U-937) of 5.99 µM and an IC50 (Hepa 1-6) of 6.22 µM. It also gave an IC50 (U-251) of 6.16 µM, an IC50 (PLC-PRF-5) of 6.52 µM and an IC50 (HCC1937) of 47.9 µM. For the same compound, the IC50 (MEG-01) was 11.5 µM, the IC50 (MDA-MB-231) was 12.3 µM and the IC50 (Jurkat) was 6.69 µM. For the same compound, the IC50 (HCCLM3 [17]) was 18.4 µM, the IC50 (Huh-7) was 12.5 µM and the IC50 (Calu-3) was 41.6 µM. The bioavailability at 24 h (in vivo [18]) was 66.4%, the IC50 (MHCC97H [19]) was 18.9 µM and the inhibition in vivo at 10 mg/kg (MHCC97H [20]) was 70%. For the same compound, the IC50 (MHCC97H [21]) was 6.92 µM, the IC50 (MHCC97H [22]) was 6.53 µM and the inhibition in vivo at 20 mg/kg (MHCC97H [23]) was 73.5%. It also gave an IC50 (PC-3) of 13.7 µM, an IC50 (SW-620) of 8.66 µM and a Kd [24] of 3.96 µM. For the same compound, the half-life at 1 h, 0.02 µM (in vitro [25]) was 37.9 min, the Tmax at 24 h (in vivo [26]) was 4.8 min and the half-life at 1 h, 0.02 µM (in vitro [27]) was 17 min.
